# Columns and labels:
# Full length human TBK1 = target: T1, Full length human TBK1 (Homo sapiens, UniProt Q9UHD2); assay: Inhibition of TBK1 Enzyme (Caliper microfluidic assay); assay type: biochemical; conditions: 25 μM ATP, 60 min at RT; -log(IC50), IC50 molar; read-out: TBK1 Inhibition (pIC50) (converted)
# T1 construct: Full length human TBK1 with an N-terminal His-tag; His-tag (N); made in house; host or cells: Sf9 insect cells (baculovirus, pFastBac1)
# T1 sequence (Q9UHD2 1-729): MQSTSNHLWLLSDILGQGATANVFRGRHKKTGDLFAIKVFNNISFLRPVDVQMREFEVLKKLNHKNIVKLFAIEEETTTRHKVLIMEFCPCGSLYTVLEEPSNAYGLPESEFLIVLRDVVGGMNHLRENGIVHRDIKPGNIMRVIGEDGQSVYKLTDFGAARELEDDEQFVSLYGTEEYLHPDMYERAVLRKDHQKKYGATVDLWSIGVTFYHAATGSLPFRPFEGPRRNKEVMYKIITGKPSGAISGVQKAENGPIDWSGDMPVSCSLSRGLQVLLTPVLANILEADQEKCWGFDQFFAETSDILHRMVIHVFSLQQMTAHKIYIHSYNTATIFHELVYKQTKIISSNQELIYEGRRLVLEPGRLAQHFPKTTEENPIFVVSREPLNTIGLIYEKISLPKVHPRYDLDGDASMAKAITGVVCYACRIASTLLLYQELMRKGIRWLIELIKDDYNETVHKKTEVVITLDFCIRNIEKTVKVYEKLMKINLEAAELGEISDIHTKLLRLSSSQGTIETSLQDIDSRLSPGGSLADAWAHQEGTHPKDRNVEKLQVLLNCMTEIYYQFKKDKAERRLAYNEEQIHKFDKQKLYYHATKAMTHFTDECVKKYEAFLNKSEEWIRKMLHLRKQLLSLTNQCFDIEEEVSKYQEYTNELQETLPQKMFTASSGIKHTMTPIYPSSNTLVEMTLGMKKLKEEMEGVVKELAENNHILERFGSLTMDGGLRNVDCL
# Method in brief: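 Enzyme: His-tagged full-length TBK1 expressed in Sf9. Reaction 60 min at RT in 20 mM Hepes pH 7.4, 10 mM MgCl2, 1 mM EDTA, 0.01% Brij-L23, 1 mM DTT, with 5FAM-peptide (added at 1 μM) and TBK1/ATP mix (added at 3 nM/25 μM), then EDTA-quenched. Conversion measured by microfluidic separation; 11-point 2.5-fold series fit to pIC50.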
# TBK1 = target: T2, TBK1 (Homo sapiens, UniProt Q9UHD2); assay: Inhibition of TBK1 in Cells (TLR3 driven ISRE β-lactamase reporter assay); assay type: cell-based; conditions: poly IC-LMW stimulation 16 hrs; -log(EC50), EC50 molar; read-out: Inhibition of TBK1 in cells pEC50 (EC) (converted)
# T2 construct: host or cells: RA1-ISRE beta-lactamase reporter cells
# T2 sequence (Q9UHD2 1-729): T1 sequence (Q9UHD2 1-729)
# Method in brief: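 RA1-ISRE β-lactamase reporter cells (50,000/well) treated with 11-point 2.5-fold compound dilutions and stimulated with 0.15 mg/ml poly IC-LMW for 16 hrs. Reporter read by CCF4-AM FRET; EC50 from non-linear fit of percent inhibition, reported as pEC50 (molar).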
# C57/BL6 mice = assay: Inhibition of ConA Induced Hepatitis (plasma ALT); assay type: in vivo; conditions: Mus musculus; oral, 1 hr before ConA 15 mg/kg i.v.; plasma collected post 8-24 hrs; read-out: ED50 (amount reducing ConA induced increase in plasma ALT level by 50%)
# Protocol: Orally administer compound into normal C57/BL6 mice at several doses. After 1 hr, inject i.v. with ConA 15 mg/kg, (N=5). Post 8-24 hrs, collect plasma and liver. Measure plasma ALT enzyme level. An ED50 is determined as the amount of test compound that reduces ConA induced increase in plasma ALT level by 50%.
IC50 (Full length human TBK1),EC50 (TBK1),melting point,SMILES,ED50 (C57/BL6 mice)
79.4 nM,3310 nM,> 275 °C,"Cc1c(-c2ccc3nc(NC(=O)C4CC4)cn3c2)n[nH]c1C(=O)NCC(F)(F)F [Example 25, 3-(2-(cyclopropanecarboxamido)imidazo[1,2-a]pyridin-6-yl)-4-methyl-N-(2,2,2-trifluoroethyl)-1H-pyrazole-5-carboxamide]",–
15.8 nM,537 nM,–,"O=C(NCC(F)F)c1nc(-c2ccc3nc(NC(=O)C4CC4)cn3c2)cs1 [Example 86, 4-(2-(cyclopropanecarboxamido)imidazo[1,2-a]pyridin-6-yl)-N-(2,2-difluoroethyl)thiazole-2-carboxamide]",5 mg/kg
